This passage reports remaining activity results from paper PMC8286840, “Identifying SARS-CoV-2 antiviral compounds by screening for small molecule inhibitors of Nsp3 papain-like protease” (Biochemical Journal, 2021).

For test [1], the target named is T1, SARS-CoV-2 PLpro (nsp3 1564–1878) (Severe acute respiratory syndrome coronavirus 2, UniProt P0DTD1). The test is described as follows: biochemical. The arrangement: FRET-quenched peptide (Pro3) cleavage by PLpro, 10 min pre-incubation, slope over 20 min, normalised to no-compound control. To be noted: read-out: % of control remaining.
The target in test [2] is T1, SARS-CoV-2 PLpro (nsp3 1564–1878). The test is described as follows: biochemical. The arrangement: FRET-quenched peptide (Pro3) cleavage by PLpro, 10 min pre-incubation, slope over 20 min, normalised to no-compound control. The settings on record: read-out: % of control remaining. The source holds these as a separate data set.

Where a name gives a salt, the structure may show the parent alone. Read-outs that look alike come from different tables or passages of the source.

On to `CC(=O)N[C@@H](CS)C(=O)O` [N-Acetyl-Cysteine], for which the remaining activity at 3.75 µM in test [1] (Well no.=4036, high concentration screen) was found to be 96.7%. For the same compound, in test [2] (Well no.=4036, low concentration screen), the remaining activity at 1.25 µM came out at 97.8%.
Regarding `Cc1[nH]c2ccccc2c1C1=C(NCCc2ccc(F)cc2)C(=O)N(C)C1=O` [IM-12], the remaining activity at 3.75 µM in test [1] (Well no.=5776, high concentration screen) was 100%. Besides, the remaining activity at 1.25 µM in test [2] (Well no.=5776, low concentration screen) was 99.9%.
Take `CN1CCc2nc(C(=O)N[C@@H]3C[C@@H](C(=O)N(C)C)CC[C@@H]3NC(=O)C(=O)Nc3ccc(Cl)cn3)sc2C1` [Edoxaban]: the remaining activity at 3.75 µM in test [1] (Well no.=8572, high concentration screen) worked out at 97.7%. For the same compound, the remaining activity at 1.25 µM in test [2] (Well no.=8572, low concentration screen) came to 99.4%.
For `CCCCCCCCc1ccc(CCC(N)(CO)CO)cc1` [2-amino-2-[2-(4-octylphenyl)ethyl]-1,3-propanediol hydrochloride], the remaining activity at 3.75 µM in test [1] (Well no.=6045, high concentration screen) was determined as 95.1%. In addition, in test [2] (Well no.=6045, low concentration screen), the remaining activity at 1.25 µM was 93.4%.
On to `CP(=O)(O)C1=CCNCC1` [TPMPA], for which the remaining activity at 3.75 µM in test [1] (Well no.=1474, high concentration screen) was determined as 102%. Moreover, the remaining activity at 1.25 µM in test [2] (Well no.=1474, low concentration screen) was 100%.
Consider `Clc1cccc(Cl)c1NC1=NCCN1` [Clonidine (hydrochloride)], for which the remaining activity at 3.75 µM in test [1] (Well no.=6755, high concentration screen) came to 98.3%. The remaining activity at 1.25 µM in test [2] (Well no.=6755, low concentration screen) came to 99.8%.
In the case of `Cc1cncc2cccc(S(=O)(=O)N3CCCN(C(=O)CN)C[C@@H]3C)c12` [Rho Kinase Inhibitor IV], the remaining activity at 3.75 µM in test [1] (Well no.=2559, high concentration screen) is 105%. In test [2] (Well no.=2559, low concentration screen), the remaining activity at 1.25 µM was found to be 104%.
For the compound `CCCCC1OC(=O)C2=CCCCC21` (stereo not shown) [Sedanolide], in test [1] (Well no.=3751, high concentration screen), the remaining activity at 3.75 µM is 98.7%. In addition, the remaining activity at 1.25 µM in test [2] (Well no.=3751, low concentration screen) amounted to 92.6%.
On to `C[C@@H](N)[C@H]1CC[C@H](C(=O)Nc2ccncc2)CC1` [ROCK Inhibitor, Y-27632], for which, in test [1] (Well no.=2452, high concentration screen), the remaining activity at 3.75 µM was 98.5%. For the same compound, the remaining activity at 1.25 µM in test [2] (Well no.=2452, low concentration screen) amounted to 99.4%.
Turning to `O[C@@H]1[C@@H](O)[C@H](OC/C=C/c2ccccc2)O[C@H](CO[C@@H]2OC[C@H](O)[C@H](O)[C@H]2O)[C@H]1O` [Rosavin], the remaining activity at 3.75 µM in test [1] (Well no.=5422, high concentration screen) was found to be 104%. In addition, the remaining activity at 1.25 µM in test [2] (Well no.=5422, low concentration screen) was 101%.
Consider `CCOc1nc2cccc(C(=O)O)c2n1Cc1ccc(-c2ccccc2-c2noc(=O)[nH]2)cc1` [Azilsartan], for which the remaining activity at 3.75 µM in test [1] (Well no.=5416, high concentration screen) was 95.7%; in test [1] (Well no.=6813, high concentration screen), 89.9%. Moreover, the remaining activity at 1.25 µM amounted to 97.2% in test [2] (Well no.=5416, low concentration screen) and 90.2% in test [2] (Well no.=6813, low concentration screen).
Turning to `C[C@@H]1Cc2c(Cl)cc(C(=O)N[C@@H](Cc3ccccc3)C(=O)O)c(O)c2C(=O)O1` [Ochratoxin A], the remaining activity at 3.75 µM in test [1] was found to be 92.8%. Moreover, the remaining activity at 1.25 µM in test [2] amounted to 92.5%.
Turning to `CC(C)(C)c1cnc(CSc2cnc(NC(=O)C3CCNCC3)s2)o1` [SNS-032], in test [1] (Well no.=2845, high concentration screen), the remaining activity at 3.75 µM turned out to be 104%. In test [2] (Well no.=2845, low concentration screen), the remaining activity at 1.25 µM was found to be 105%.
Consider `Cc1ncc(COP(=O)(O)O)c(C=O)c1O` [Pyridoxal phosphate], for which, in test [1] (Well no.=6389, high concentration screen), the remaining activity at 3.75 µM came out at 101%. Also, the remaining activity at 1.25 µM in test [2] (Well no.=6389, low concentration screen) came out at 103%.
Consider `CCCc1ncc(C[n+]2ccccc2C)c(N)n1` [Amprolium HCl], for which, in test [1] (Well no.=8588, high concentration screen), the remaining activity at 3.75 µM stood at 108%. Moreover, the remaining activity at 1.25 µM in test [2] (Well no.=8588, low concentration screen) was determined as 106%.
With `CCN1CCCC1CNC(=O)c1cc(S(N)(=O)=O)ccc1OC` (stereo not shown) [Sulpiride], the remaining activity at 3.75 µM in test [1] (Well no.=6423, high concentration screen) was found to be 97.9%. Moreover, in test [2] (Well no.=6423, low concentration screen), the remaining activity at 1.25 µM came to 99.1%.
Regarding `Nc1nc2c(nc(Br)n2[C@@H]2O[C@@H]3COP(=O)(O)O[C@H]3[C@H]2O)c(=O)[nH]1` [8-Bromo-cGMP sodium], the remaining activity at 3.75 µM in test [1] (Well no.=214, high concentration screen) stood at 102%. In addition, the remaining activity at 1.25 µM in test [2] (Well no.=214, low concentration screen) turned out to be 102%.
In the case of `NCC(O)C1CCCCCCC1` (stereo not shown) [2-Cyclooctyl-2-hydroxyethylamine hydrochloride], the remaining activity at 3.75 µM in test [1] (Well no.=485, high concentration screen) is 105%. Further, in test [2] (Well no.=485, low concentration screen), the remaining activity at 1.25 µM came out at 106%.
In the case of `CCCN1CCCC[C@H]1C(=O)Nc1c(C)cccc1C` [Ropivacaine hydrochloride], the remaining activity at 3.75 µM in test [1] (Well no.=5891, high concentration screen) was found to be 97.5%. Also, in test [2] (Well no.=5891, low concentration screen), the remaining activity at 1.25 µM turned out to be 98.9%.
Turning to `CCCCCCCCC#CCC#CCC#CCCCC(=O)O` [5,8,11-Eicosatriynoic acid], the remaining activity at 3.75 µM in test [1] (Well no.=411, high concentration screen) was 97.5%; in test [1] (Well no.=4470, high concentration screen), 92.3%. Besides, the remaining activity at 1.25 µM in test [2] (Well no.=411, low concentration screen) came to 101%; in test [2] (Well no.=4470, low concentration screen), 96.8%.
Regarding `CCN(CCCc1ccccc1)CCCc1ccccc1` [Alverine Citrate], the remaining activity at 3.75 µM in test [1] (Well no.=5277, high concentration screen) is 91.3%. The remaining activity at 1.25 µM in test [2] (Well no.=5277, low concentration screen) stood at 91.4%.
On to `Oc1ccc2c3c1O[C@H]1c4[nH]c5ccccc5c4C[C@@]4(O)[C@@H](C2)N(CC2CC2)CC[C@]314` [Naltrindole (hydrochloride)], for which, in test [1] (Well no.=7227, high concentration screen), the remaining activity at 3.75 µM was 97.5%. For the same compound, in test [2] (Well no.=7227, low concentration screen), the remaining activity at 1.25 µM stood at 103%.
As for `O=C(Nc1cccc2c(=O)cc(-c3nnn[nH]3)oc12)c1ccc(OCCCCc2ccccc2)cc1` [Pranlukast], the remaining activity at 3.75 µM in test [1] (Well no.=1720, high concentration screen) was determined as 101%; in test [1] (Well no.=7329, high concentration screen) it was 98.4%. For the same compound, the remaining activity at 1.25 µM stood at 99.8% in test [2] (Well no.=1720, low concentration screen) and 103% in test [2] (Well no.=7329, low concentration screen).
With `COc1nccc(-c2c(-c3ccc(F)cc3)ncn2[C@H]2CC[C@H](O)CC2)n1` [SB 239063 - trans-4-[4-(4-Fluorophenyl)-5-(2-methoxy-4-pyrimidinyl)-1H-imidazol-1-yl]cyclohexanol], in test [1] (Well no.=2478, high concentration screen), the remaining activity at 3.75 µM worked out at 98.4%. In addition, in test [2] (Well no.=2478, low concentration screen), the remaining activity at 1.25 µM stood at 98.8%.
With `O=C(NCc1ccc2c(c1)OCO2)c1c(Cl)cccc1Cl` [Alda-1], the remaining activity at 3.75 µM in test [1] (Well no.=5935, high concentration screen) came to 99.3%. Moreover, in test [2] (Well no.=5935, low concentration screen), the remaining activity at 1.25 µM worked out at 101%.
As for `C#CCCCCCCCCCCCCCCCC(=O)O` [17-Octadecynoic acid], the remaining activity at 3.75 µM in test [1] (Well no.=4351, high concentration screen) was found to be 104%. Besides, the remaining activity at 1.25 µM in test [2] (Well no.=4351, low concentration screen) was determined as 105%.
Take `NC1CCc2cc(O)c(O)cc2C1` (stereo not shown) [6,7-ADTN hydrobromide]: the remaining activity at 3.75 µM in test [1] (Well no.=444, high concentration screen) amounted to 104%. The remaining activity at 1.25 µM in test [2] (Well no.=444, low concentration screen) worked out at 101%.
On to `C[C@H](Cc1ccc(OCC(=O)O)cc1)NC[C@H](O)c1cccc(Cl)c1` (racemic) [BRL 37344 sodium], for which the remaining activity at 3.75 µM in test [1] (Well no.=183, high concentration screen) was found to be 103%. In addition, the remaining activity at 1.25 µM in test [2] (Well no.=183, low concentration screen) stood at 98%.
Take `O=C(O)C1CCNCC1` [Isonipecotic acid]: in test [1] (Well no.=1067, high concentration screen), the remaining activity at 3.75 µM came to 96.7%. In addition, the remaining activity at 1.25 µM in test [2] (Well no.=1067, low concentration screen) is 92.8%.
As for `CC(CN(C)C)NC(=O)c1cccc2[nH]c(-c3ccncc3)nc12` (stereo not shown) [ChX710], in test [1] (Well no.=8551, high concentration screen), the remaining activity at 3.75 µM was 101%. The remaining activity at 1.25 µM in test [2] (Well no.=8551, low concentration screen) was determined as 108%.
`OC[C@H]1O[C@@H](n2cnc3c(NCc4ccc(O)cc4)ncnc32)[C@H](O)[C@@H]1O` [N6-(4-Hydroxybenzyl)adenosine]: the remaining activity at 3.75 µM in test [1] (Well no.=7233, high concentration screen) amounted to 101%; in test [1] (Well no.=7954, high concentration screen), 97.1%. Further, the remaining activity at 1.25 µM came to 106% in test [2] (Well no.=7233, low concentration screen) and 101% in test [2] (Well no.=7954, low concentration screen).
